Values joined by “and” are separate entries in the source; they are usually repeats but may differ in a detail not shown here. Identical values can stand only once. Active and inactive are the calls of the source.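 Rule for the calls: active = compounds giving half or more protection of infected cells from virus-caused growth loss, again on retest; inactive = the rest.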 A value given as a limit tells only on which side of the number the result lay.

The subject of this experiment is CEM cells HIV-1 protection, formazan growth assay. Description: NCI AIDS Antiviral Assay. To be noted: for IC50: measured here: growth of uninfected CEM cells. Summed up: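 Screen of anti-HIV-1 activity in human CEM cells using a formazan-based growth measurement at five drug concentrations. Hits with 50% or greater protection were repeated, and confirmation required reproducible complete protection.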

Take `O=C1CSC(c2ccccc2[N+](=O)[O-])N1c1ccc(-c2ccc(-n3c(-c4ccccc4)nc4ccccc4c3=O)cc2)cc1` (stereo not given): the EC50 was more than 200 µM and the IC50 is 95.5 µM.
Regarding `C/C(=N\NC(N)=O)c1ccccc1`, the result was inactive.
With `C=C(C)C(O)C(O)c1c(OC)ccc2ccc(=O)oc12` (stereo not given), the EC50 was more than 174 µM and the 50% inhibitory concentration (IC50) was more than 174 µM.
Regarding `O=c1[nH]c2nc3ccccc3c(=O)n2/c1=C/c1ccc(O)cc1`, the EC50 is more than 200 µM and the IC50 worked out at 52.5 µM.
On the same counts, the results for `O=C(NS(=O)(=O)Nc1ccccc1)OC(c1ccccc1)c1ccccc1` are more than 200 µM and 70.8 µM.
On the same counts, the results for `COC(=O)c1ccccc1C1=C(O)C(=O)C(c2ccccc2C(=O)OC)=C(O)C1=O` are more than 63.1 µM and 6.76 µM.
With `O=C(/C(=N/Nc1ccccc1)c1ccc([N+](=O)[O-])cc1)c1ccc([N+](=O)[O-])cc1`, the outcome was inactive.
Consider `CN(N=O)C(=O)NC(C=O)C(O)C(O)C(O)CO` (stereo not given), for which the EC50 was more than 200 µM and the IC50 was more than 200 µM.
For the compound `O=S(=O)(F)c1cccc(C[P+](c2ccccc2)(c2ccccc2)c2ccccc2)c1`, the EC50 is more than 200 µM and the concentration for half-maximal inhibition (IC50) was 51.3 µM.
Consider `C=C1CC2(CCOc3ccc(Cl)cc32)OC1=O` (stereo not given), for which the EC50 is more than 372 µM and the IC50 is 0.977 µM.
For `O=C1NC(=S)N/C1=C\c1ccc(Cl)cc1`, the EC50 is more than 200 µM and the IC50 amounted to 105 µM.
On the same counts, the results for `C=CCOc1ccc(N)c([N+](=O)[O-])c1` are more than 200 µM and more than 200 µM.
Taken in the same sequence, the figures for `COc1ccc([C@H]2CC(=O)C[C@H](c3ccc(OC)cc3OC)C23C(=O)c2ccccc2C3=O)c(OC)c1` were more than 200 µM and 151 µM.
Taken in the same sequence, the figures for `Cc1nc2c(nc1C)C(=O)C1=C(C2=O)C2C=CC1CC2` were more than 70.8 µM and 1.62 µM.
Consider `CC1S(=O)(=O)OCCOS1(=O)=O`, for which the EC50 is more than 1150 µM and the IC50 is 123 µM.
Taken in the same sequence, the figures for `CC(=N/NC(=S)N(C)C)/C(=N\NC(=S)N(C)C)c1ccccc1` were more than 200 µM and 3.63 µM.
With `C[C@H](CCc1nc(C#N)c(N)o1)[C@H]1CC[C@H]2[C@@H]3CCC4C[C@@H](O)CC[C@]4(C)[C@H]3C[C@@H](O)[C@]12C` (stereo not given in full), the EC50 was more than 20 µM and the 50% inhibitory concentration (IC50) is 1.95 µM.
As for `Cc1ccc(S(=O)(=O)/C(C#N)=C/n2ccc(=O)[nH]c2=S)cc1`, the EC50 is more than 200 µM and the half-inhibitory concentration (IC50) was more than 200 µM.
Regarding `O=C(/C=C/C(=O)N1CCCC1)N1CCCC1`, the EC50 is more than 200 µM and the IC50 is more than 200 µM.
As to `Cc1cc(NCCCCCCNc2cc(C)nc3ccc(N)cc23)c2cc(N)ccc2n1`, the IC50 is 10.7 µM and 72.4 µM.
With `COc1ccc2c(c1)CCN=C2c1ccccc1CCCCl`, the EC50 is more than 200 µM and the concentration for half-maximal inhibition (IC50) is 2.34 µM.
Taken in the same sequence, the figures for `Cc1nc2c3c(Cc4ccccc4)c(C)[nH]c3ncn2n1` were more than 200 µM and 117 µM.
Taken in the same sequence, the figures for `CC#CC(O)(C(=O)OC1CCCN(C)C1)C1=CC=CCC1` (stereo not given) were more than 200 µM and more than 200 µM.
On the same counts, the results for `CCN(CC)CCC1CCCCN1CC(=O)N1c2ccccc2NC(=O)CC1C` (stereo not given) are more than 200 µM and more than 200 µM.
In the case of `c1cc2c(cnc3cscc32)s1`, the outcome was inactive.
In the case of `N#CC1CC2(C(=O)C1=O)c1ccccc1-c1ccccc12` (stereo not given), the outcome was inactive.
Turning to `C#CC1(O)C(/C=N/O)OC(n2ccc(=O)[nH]c2=O)C1O[Si](C)(C)C(C)(C)C` (stereo not given), the EC50 was more than 200 µM and the IC50 stood at 72.4 µM.
With `CC(C)(O)[C@@H]1CC[C@@]2(C)CCC[C@H](O)[C@H]2C1`, the result was inactive.
With `NC(=S)NC/C=C/Cl`, the EC50 is more than 200 µM and the concentration for half-maximal inhibition (IC50) is more than 200 µM.
Consider `CC(=O)Oc1ccc2c(c1)O/C(=C\c1ccc(N(C)C)cc1)C2=O`, for which the EC50 was more than 200 µM and the IC50 was determined as 28.8 µM.
Taken in the same sequence, the figures for `CN1CCN(c2cc3nsnc3c3nsnc23)CC1` were more than 200 µM and more than 200 µM.
On the same counts, the results for `N#Cc1c(N2CCOCC2)ncn(-c2ccc(Cl)cc2)c1=O` are more than 200 µM and more than 200 µM.
On the same counts, the results for `CCOC(=O)C(=O)Nc1nc2ccc(OC)cc2s1` are more than 447 µM and more than 447 µM.
Regarding `CCN(CCCl)CCCCCNc1c2ccccc2nc2ccc(OC)cc12`, the outcome was inactive.
In the case of `CCCCCCCCOP(=O)(/C=C/c1ccccc1)OCCCCCCCC`, the EC50 was more than 6.61 µM and the IC50 is more than 6.61 µM.
Take `CN(C)c1nc(N(C)C)nc(N(C)C)n1`: the EC50 is more than 34.7 µM and the IC50 came to 26.3 µM.
On the same counts, the results for `Cn1ccnc1.Cn1ccnc1.[O-][Cl+3]([O-])([O-])[O-].[Pt+2].c1ccc(-c2ccccn2)nc1` are more than 200 µM and more than 200 µM.
Consider `COc1ccc(C([Se]c2ccccc2)C2C(=O)N(O)CC(=O)N2O)cc1` (stereo not given), for which the outcome was inactive.
As to `CN1C(=O)N/C(=N/c2nc(Cc3ccc4c(c3)OCO4)cn2C)C1=O`, the EC50 was more than 1.58 µM and the 50% inhibitory concentration (IC50) was more than 1.58 µM.
In the case of `O=C(O)CNCc1c2ccccc2[n+]([O-])c2ccccc12`, the outcome was inactive.
Consider `CN1c2ccccc2N(C)P1(=S)c1ccccc1`, for which the EC50 was more than 200 µM and the IC50 came to 26.9 µM.
`C=C1CN(S(=O)(=O)c2ccc(C)cc2)CCN(Cc2ccccc2)CCN(S(=O)(=O)c2ccc(C)cc2)C1`: the EC50 was more than 200 µM and the IC50 was more than 200 µM.
`OC(O)(C(F)(F)F)C(F)(F)F`: the EC50 was more than 200 µM and the half-inhibitory concentration (IC50) was more than 200 µM.
Take `Oc1ccc(Cc2nc3ccccc3[nH]2)cc1`: the EC50 is more than 200 µM and the IC50 was more than 200 µM.
Take `Cc1c[nH]c(C(=O)O)c1-c1cccn1-c1ccc(Cl)cc1[N+](=O)[O-]`: the EC50 was more than 200 µM and the half-maximal inhibitory concentration (IC50) was 87.1 µM.
On the same counts, the results for `CC1(C)OC(=O)C(C#N)=C1C[n+]1ccccc1` are more than 263 µM and more than 263 µM.
Taken in the same sequence, the figures for `CCCCCCCCCCCCCC1=C(O)C(=O)C(CC2=C(O)C(=O)C(CCCCCCCCCCCCC)=C(O)C2=O)=C(O)C1=O` were more than 17 µM and more than 17 µM.
Taken in the same sequence, the figures for `Cc1c(N=Nc2ccc([N+](=O)[O-])cc2)nc2scc(-c3ccccc3)n12` were more than 14.5 µM and more than 14.5 µM.
On to `O/N=C1/CCCCCC1NO` (stereo not given), for which the EC50 was more than 200 µM and the concentration for half-maximal inhibition (IC50) was more than 200 µM.
As for `Cc1ccccc1C(C#N)C(=O)C(=O)Nc1nc([N+](=O)[O-])cs1` (stereo not given), the EC50 was more than 7.94 µM and the concentration for half-maximal inhibition (IC50) was more than 7.94 µM.
Take `CCOC(=O)C1=C(Nc2ccc(Br)cc2)OCC1=O`: the result was inactive.
Take `Cc1cccc2c(NCCC[N+](C)(C)[O-])c3c([N+](=O)[O-])ccc(C)c3nc12`: the EC50 is more than 100 µM and the IC50 is 0.372 µM.
Taken in the same sequence, the figures for `O=C(N1CCN(CCO)CC1)N1c2ccccc2Sc2ccccc21` were more than 200 µM and 117 µM.
On the same counts, the results for `CS(=O)(=O)CS(=O)(=O)OCCCl` are more than 1050 µM and 182 µM.
For the compound `Nc1nc(=S)c2ncn(C3CC(O)C(CO)O3)c2[nH]1` (stereo not given), the EC50 was more than 891 µM; the half-inhibitory concentration (IC50) was 0.457 µM and 2.09 µM.

(Values after PubChem BioAssay AID179 (DTP/NCI, 2004).)
